Data taken from PMC6331797, “Escherichia coli ASKA Clone Library Harboring tRNA-Specific Adenosine Deaminase (tadA) Reveals Resistance towards Xanthorrhizol” (Molecules, 2015).

Experiments:
Experiment in all cases: tryptophan fluorescence quenching titration with purified protein
Type in all cases: binding
[1] = molecular target: T1, tadA (tRNA-specific adenosine deaminase) (Escherichia coli, UniProt P68398)
T1 construct: his-tagged tadA

[2] = molecular target: T2, tadA (tRNA-specific adenosine deaminase) (Escherichia coli, UniProt P68398, A143V)
T2 construct: his-tagged tadA

[3] = molecular target: T3, tadA (tRNA-specific adenosine deaminase) (Escherichia coli, UniProt P68398, F149G)
T3 construct: his-tagged tadA
T3 sequence (P68398 whole entry F149G): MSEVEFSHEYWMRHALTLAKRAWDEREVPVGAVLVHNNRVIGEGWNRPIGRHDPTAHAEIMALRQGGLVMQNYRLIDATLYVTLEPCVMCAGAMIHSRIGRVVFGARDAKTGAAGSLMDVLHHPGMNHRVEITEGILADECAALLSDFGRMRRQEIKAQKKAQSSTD

T2 sequence (P68398 whole entry A143V): as the sequence (P68398 whole entry F149G) above, with A143V, G149F counted along it
T1 sequence (P68398 whole entry): as the sequence (P68398 whole entry F149G) above, with G149F counted along it

CC(C)=CCC[C@@H](C)c1ccc(C)c(O)c1 [xanthorrhizol]
Kd [1]: 19 µM
Kd [2]: 110 µM
Kd [3]: 32.8 µM
